The subject of the data set is eardrum. In words: Confocal microscopy of ear sections: permeation of vesicles through the eardrum into the middle and inner ear. From the text: Further consideration of the various images in FIGS. 10A-11D one may observe from these confocal images of eardrum and vesicles penetration into the middle ear at different time points. To verify the permeation of the formulated vesicles through the eardrum we looked at the ear sections under confocal microscopy. […] (See FIG. 11B).
FIGS. 12A-14D relate to a series of confocal imaging at higher magnification of tympanic membrane.
FIG. 15A is showing imaging specificity of TF-RnB in red. FIG. 15B is showing imaging specificity to DAPI in blue. FIG. 15C is showing a color composite overlay of the images in FIGS. 15A and 15B.
These confocal images from inner ear show particle penetrations beyond the middle ear to inner ear. (FIG. 15C). As such, it is believed that potential applications of various embodiments of a liposomal nanoparticle may be used for inner ear drug delivery.

For `CCN(CC)c1ccc2c(-c3ccccc3C(=O)O)c3ccc(=[N+](CC)CC)cc-3oc2c1.[Cl-]` [pure RhB, Rhodamine B], under “6 hours, FIGS. 12D and 14D”, the “penetration of tympanic membrane layers (confocal imaging at higher magnification)” value is “stays on the surface of tympanic membrane without any penetration”. Further, the “penetration through eardrum into middle ear (confocal fluorescence)” value (6 h post-treatment) is recorded as “did not observe any fluorescent”.

(Values after patent publication US20230285294A1, “METHOD AND SYSTEM FOR OTOTOPICAL DELIVERY USING NANOPARTICLES FOR EAR INFECTION DIAGNOSIS AND TREATMENT” (THE BOARD OF TRUSTEES OF THE LELAND STANFORD JUNIOR …, priority 2020, published 2023).)
